Results: patent publication US10232002B1, “Oncolytic HSV1 vectors and methods of using the same” (priority 2012, dated 2019)

Tested on: U87ΔEGFR glioma cells

Question: How did the EC30 dose turn out when Cn1nnc2c(C(N)=O)ncn2c1=O [TMZ, temozolomide] was run?
Answer: 66 µM
